Results: the supplement of paper PMC11061612

How the values were obtained:
[1] = test system: SCC-15 (Oral Cavity Carcinoma); experiment: combination Emax (second highest fraction inhibited in the dose matrix, 72 h); higher = more inhibition; extreme values may be limits of the assay
In short: (§1)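 Cell lines in DMEM/F12 or RPMI with 10% FBS were plated in 1536-well plates, held 24 hours at 37°C, 5% CO2, then given two-drug dose matrices for 72 hours (DMSO typically 0.2%). Viability was read by CellTiter-Glo 2.0 luminescence and scaled as inhibition from 0 (vehicle wells) to 1 (blank wells). Combination Emax is the second-highest inhibition in the matrix; Bliss excess is observed combination effect minus expected EA + EB − EA·EB, EA and EB being single-agent effects.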

[2] = test system: VA-ES-BJ (Other Solid Carcinomas); experiment: as above
In short: as §1

[3] = test system: OE19 (Esophageal Adenocarcinoma); experiment: as above
In short: as §1

[4] = test system: HGC-27 (Gastric Carcinoma); experiment: as above
In short: as §1

[5] = test system: HOP-62 (Lung Adenocarcinoma); experiment: as above
In short: as §1

[6] = test system: OSC-20 (Oral Cavity Carcinoma); experiment: as above
In short: as §1

[7] = test system: OVCAR-4 (Ovarian Carcinoma); experiment: as above
In short: as §1

[8] = test system: NEC8 (Other Solid Carcinomas); experiment: as above
In short: as §1

[9] = test system: C-4-I (Cervical Carcinoma); experiment: as above
In short: as §1

[10] = test system: TE-1 (Esophageal Squamous Cell Carcinoma); experiment: as above
In short: as §1

PWR-1E (Non-Cancerous) [11] = experiment: as above
In short: as §1

[12] = test system: HSC-4 (Oral Cavity Carcinoma); experiment: as above
In short: as §1

[13] = test system: NCI-H1915 (Non-Small Cell Lung Carcinoma); experiment: as above
In short: as §1

[14] = test system: SU8686 (Pancreatic Carcinoma); experiment: as above
In short: as §1

[15] = test system: NUGC-3 (Gastric Carcinoma); experiment: as above
In short: as §1

[16] = test system: KMOE-2 (Acute Myeloid Leukemia); experiment: as above
In short: as §1

[17] = test system: SCC-15 (Oral Cavity Carcinoma); experiment: Bliss excess, mean over the matrix (fraction); higher = more synergy
In short: as §1

[18] = test system: VA-ES-BJ (Other Solid Carcinomas); experiment: as above
In short: as §1

[19] = test system: OE19 (Esophageal Adenocarcinoma); experiment: as above
In short: as §1

[20] = test system: HGC-27 (Gastric Carcinoma); experiment: as above
In short: as §1

[21] = test system: HOP-62 (Lung Adenocarcinoma); experiment: as above
In short: as §1

[22] = test system: OSC-20 (Oral Cavity Carcinoma); experiment: as above
In short: as §1

[23] = test system: OVCAR-4 (Ovarian Carcinoma); experiment: as above
In short: as §1

[24] = test system: NEC8 (Other Solid Carcinomas); experiment: as above
In short: as §1

[25] = test system: C-4-I (Cervical Carcinoma); experiment: as above
In short: as §1

[26] = test system: TE-1 (Esophageal Squamous Cell Carcinoma); experiment: as above
In short: as §1

PWR-1E (Non-Cancerous) [27] = experiment: as above
In short: as §1

[28] = test system: HSC-4 (Oral Cavity Carcinoma); experiment: as above
In short: as §1

[29] = test system: NCI-H1915 (Non-Small Cell Lung Carcinoma); experiment: as above
In short: as §1

[30] = test system: SU8686 (Pancreatic Carcinoma); experiment: as above
In short: as §1

[31] = test system: NUGC-3 (Gastric Carcinoma); experiment: as above
In short: as §1

[32] = test system: KMOE-2 (Acute Myeloid Leukemia); experiment: as above
In short: as §1
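For Bliss excess, mean over the matrix in this document: after 72 h of two-drug dosing.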

Structure (SMILES): COc1nnc2ccc(N3CCC(c4ccc(OCCN5CCN(C)C(=O)[C@H]5C)cc4)CC3)nn12 [AZD5153] + CN(CC[C@H](CSC1=CC=CC=C1)NC2=C(C=C(C=C2)S(=O)(=O)NC(=O)C3=CC=C(C=C3)N4CCC(CC4)[C@H](C5=CC=CC=C5C6=CC=C(C=C6)Cl)O)S(=O)(=O)C(F)(F)F)CCO [AZD4320] (first compound max 1 µM, 7x7, partner max 1 µM)
- combination Emax [1]: 0.39
- combination Emax [2]: 0.517
- combination Emax [3]: 0.501
- combination Emax [4]: 0.772
- combination Emax [5]: 0.635
- combination Emax [6]: 0.132
- combination Emax [7]: 0.458
- combination Emax [8]: 0.962
- combination Emax [9]: 0.762
- combination Emax [10]: 0.485
- combination Emax (PWR-1E (Non-Cancerous) [11]): 0.714
- combination Emax [12]: 0.217
- combination Emax [13]: 0.57
- combination Emax [14]: 0.0559
- combination Emax [15]: 0.639
- combination Emax [16]: 0.993
- Bliss excess [17]: 0.001
- Bliss excess [18]: 0.0839
- Bliss excess [19]: 0.0208
- Bliss excess [20]: -0.0329
- Bliss excess [21]: 0.011
- Bliss excess [22]: -0.0543
- Bliss excess [23]: 0.0377
- Bliss excess [24]: 0.0236
- Bliss excess [25]: 0.0692
- Bliss excess [26]: -0.0193
- Bliss excess (PWR-1E (Non-Cancerous) [27]): 0.0243
- Bliss excess [28]: -0.0287
- Bliss excess [29]: 0.0678
- Bliss excess [30]: -0.0373
- Bliss excess [31]: 0.0423
- Bliss excess [32]: 0.0295

Structure (SMILES): CC(=O)c1c(C)c2cnc(Nc3ccc(N4CCNCC4)cn3)nc2n(C2CCCC2)c1=O [Palbociclib] + CN(CC[C@H](CSC1=CC=CC=C1)NC2=C(C=C(C=C2)S(=O)(=O)NC(=O)C3=CC=C(C=C3)N4CCC(CC4)[C@H](C5=CC=CC=C5C6=CC=C(C=C6)Cl)O)S(=O)(=O)C(F)(F)F)CCO [AZD4320] (first compound max 10 µM, 7x7, partner max 1 µM)
- combination Emax [1]: 0.206
- combination Emax [2]: 0.309
- combination Emax [3]: 0.467
- combination Emax [4]: 0.764
- combination Emax [5]: 0.332
- combination Emax [6]: 0.182
- combination Emax [7]: 0.22
- combination Emax [8]: 0.209
- combination Emax [9]: 0.372
- combination Emax [10]: 0.439
- combination Emax (PWR-1E (Non-Cancerous) [11]): 0.278
- combination Emax [12]: 0.0868
- combination Emax [13]: 0.491
- combination Emax [14]: 0.0398
- combination Emax [15]: 0.714
- combination Emax [16]: 0.96
- Bliss excess [17]: -0.0694
- Bliss excess [18]: -0.0288
- Bliss excess [19]: -0.0369
- Bliss excess [20]: 0.0123
- Bliss excess [21]: -0.0777
- Bliss excess [22]: -0.0381
- Bliss excess [23]: -0.0354
- Bliss excess [24]: -0.0337
- Bliss excess [25]: -0.0686
- Bliss excess [26]: -0.0322
- Bliss excess (PWR-1E (Non-Cancerous) [27]): -0.0204
- Bliss excess [28]: -0.0833
- Bliss excess [29]: -0.0273
- Bliss excess [30]: -0.0447
- Bliss excess [31]: -0.0659
- Bliss excess [32]: -0.0213

Structure (SMILES): C[C@@H](c1ccc2nccn2c1)n1nnc2ncc(-c3cnn(C)c3)nc21 [Savolitinib] + CN(CC[C@H](CSC1=CC=CC=C1)NC2=C(C=C(C=C2)S(=O)(=O)NC(=O)C3=CC=C(C=C3)N4CCC(CC4)[C@H](C5=CC=CC=C5C6=CC=C(C=C6)Cl)O)S(=O)(=O)C(F)(F)F)CCO [AZD4320] (first compound max 1 µM, 7x7, partner max 1 µM)
- combination Emax [1]: 0.29
- combination Emax [2]: 0.182
- combination Emax [3]: 0.22
- combination Emax [4]: 0.233
- combination Emax [5]: 0.122
- combination Emax [6]: 0.129
- combination Emax [7]: 0.126
- combination Emax [8]: 0.302
- combination Emax [9]: 0.234
- combination Emax [10]: 0.289
- combination Emax (PWR-1E (Non-Cancerous) [11]): 0.211
- combination Emax [12]: 0.24
- combination Emax [13]: 0.132
- combination Emax [14]: 0.173
- combination Emax [15]: 0.279
- combination Emax [16]: 0.59
- Bliss excess [17]: -0.0604
- Bliss excess [18]: -0.029
- Bliss excess [19]: -0.0091
- Bliss excess [20]: -0.0098
- Bliss excess [21]: -0.0729
- Bliss excess [22]: -0.0626
- Bliss excess [23]: -0.0293
- Bliss excess [24]: -0.0021
- Bliss excess [25]: -0.0399
- Bliss excess [26]: -0.0316
- Bliss excess (PWR-1E (Non-Cancerous) [27]): -0.0221
- Bliss excess [28]: -0.0591
- Bliss excess [29]: -0.0519
- Bliss excess [30]: -0.0255
- Bliss excess [31]: -0.0429
- Bliss excess [32]: -0.0537
